According to ChEMBL document CHEMBL1133053, “(S)-Thiirancarboxylic acid as a reactive building block for a new class of cysteine protease inhibitors” (Bioorg Med Chem Lett, 2000):

How the values were obtained:
Papain (Carica papaya) [1] = target: T1, Papain (Carica papaya) (UniProt P00784); test: The first order rate constant of inactivation was reported
T1 sequence (whole entry): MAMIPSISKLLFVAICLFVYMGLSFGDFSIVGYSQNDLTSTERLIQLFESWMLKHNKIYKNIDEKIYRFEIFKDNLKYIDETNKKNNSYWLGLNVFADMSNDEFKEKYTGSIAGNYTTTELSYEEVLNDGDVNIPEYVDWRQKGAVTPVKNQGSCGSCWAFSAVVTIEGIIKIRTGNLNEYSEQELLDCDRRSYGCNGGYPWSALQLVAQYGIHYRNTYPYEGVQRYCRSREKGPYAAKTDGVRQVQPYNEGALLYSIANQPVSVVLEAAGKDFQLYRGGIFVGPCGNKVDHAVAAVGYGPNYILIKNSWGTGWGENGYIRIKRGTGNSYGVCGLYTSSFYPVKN

Papain = target: T2, Papain (Carica papaya, UniProt P00784); test: The compound was evaluated for inhibition of papain.
T2 sequence (P00784 whole entry): T1 sequence (whole entry)

Papain (Carica papaya) [2] = target: T1, Papain (Carica papaya); test: The second order rate constant of inactivation was reported
Papain (Carica papaya) [3] = target: T1, Papain (Carica papaya); test: The second order rate constant of inactivation was reported at pH 4

CCOC(=O)[C@H]1CS1
K1 (Papain (Carica papaya) [1]): 0.57 µM
IC50 (Papain): 570 nM

CCOC(=O)C1OC1C(=O)OCC (stereo unspecified)
IC50 (Papain): 207 nM

CCOC(=O)[C@@H]1N[C@H]1C(=O)O
K2 (Papain (Carica papaya) [2]): 58.8 M⁻¹ s⁻¹

CCOC(=O)C1OC1C(=O)O (stereo unspecified)
IC50 (Papain): 10.5 nM

CCOC(=O)[C@H]1O[C@@H]1C(=O)OCC
K2 (Papain (Carica papaya) [2]): 1.73 M⁻¹ s⁻¹

COC(=O)[C@H]1CS1
K1 (Papain (Carica papaya) [1]): 0.2 µM
IC50 (Papain): 200 nM

CCOC(=O)[C@H]1N[C@@H]1C(=O)O
K2 (Papain (Carica papaya) [3]): 413 M⁻¹ s⁻¹
K2 (Papain (Carica papaya) [2]): 78.2 M⁻¹ s⁻¹

CCOC(=O)[C@@H]1N[C@H]1C(=O)OCC
K2 (Papain (Carica papaya) [2]): 0.2 M⁻¹ s⁻¹

CCOC(=O)[C@@H]1O[C@H]1C(=O)OCC
K2 (Papain (Carica papaya) [2]): 1.68 M⁻¹ s⁻¹

O=C(O)[C@H]1CS1
K2 (Papain (Carica papaya) [2]): 3.7 M⁻¹ s⁻¹

CCOC(=O)[C@H]1N[C@@H]1C(=O)OCC
K2 (Papain (Carica papaya) [3]): 1.02 M⁻¹ s⁻¹
K2 (Papain (Carica papaya) [2]): 0.183 M⁻¹ s⁻¹

O=C(O)[C@@H]1CN1
K2 (Papain (Carica papaya) [2]): 17 M⁻¹ s⁻¹
